Results: ChEMBL document CHEMBL2073984, “Nonlinear oral pharmacokinetics of the alpha-antagonist 4-amino-5-(4-fluorophenyl)-6,7-dimethoxy-2-[4-(morpholinocarbonyl)-perhydro-1,4-diazepin-1-yl]quinoline in humans: use of preclinical data to rationalize clinical observations” (Drug Metab Dispos, 2004)

Target: ATP-dependent translocase ABCB1 (Homo sapiens, UniProt P08183)
Test: TP_TRANSPORTER: transepithelial transport in Caco2 cells
Format: functional, cell-based
Details: caco-2

ATP-dependent translocase ABCB1, sequence (P08183 whole entry): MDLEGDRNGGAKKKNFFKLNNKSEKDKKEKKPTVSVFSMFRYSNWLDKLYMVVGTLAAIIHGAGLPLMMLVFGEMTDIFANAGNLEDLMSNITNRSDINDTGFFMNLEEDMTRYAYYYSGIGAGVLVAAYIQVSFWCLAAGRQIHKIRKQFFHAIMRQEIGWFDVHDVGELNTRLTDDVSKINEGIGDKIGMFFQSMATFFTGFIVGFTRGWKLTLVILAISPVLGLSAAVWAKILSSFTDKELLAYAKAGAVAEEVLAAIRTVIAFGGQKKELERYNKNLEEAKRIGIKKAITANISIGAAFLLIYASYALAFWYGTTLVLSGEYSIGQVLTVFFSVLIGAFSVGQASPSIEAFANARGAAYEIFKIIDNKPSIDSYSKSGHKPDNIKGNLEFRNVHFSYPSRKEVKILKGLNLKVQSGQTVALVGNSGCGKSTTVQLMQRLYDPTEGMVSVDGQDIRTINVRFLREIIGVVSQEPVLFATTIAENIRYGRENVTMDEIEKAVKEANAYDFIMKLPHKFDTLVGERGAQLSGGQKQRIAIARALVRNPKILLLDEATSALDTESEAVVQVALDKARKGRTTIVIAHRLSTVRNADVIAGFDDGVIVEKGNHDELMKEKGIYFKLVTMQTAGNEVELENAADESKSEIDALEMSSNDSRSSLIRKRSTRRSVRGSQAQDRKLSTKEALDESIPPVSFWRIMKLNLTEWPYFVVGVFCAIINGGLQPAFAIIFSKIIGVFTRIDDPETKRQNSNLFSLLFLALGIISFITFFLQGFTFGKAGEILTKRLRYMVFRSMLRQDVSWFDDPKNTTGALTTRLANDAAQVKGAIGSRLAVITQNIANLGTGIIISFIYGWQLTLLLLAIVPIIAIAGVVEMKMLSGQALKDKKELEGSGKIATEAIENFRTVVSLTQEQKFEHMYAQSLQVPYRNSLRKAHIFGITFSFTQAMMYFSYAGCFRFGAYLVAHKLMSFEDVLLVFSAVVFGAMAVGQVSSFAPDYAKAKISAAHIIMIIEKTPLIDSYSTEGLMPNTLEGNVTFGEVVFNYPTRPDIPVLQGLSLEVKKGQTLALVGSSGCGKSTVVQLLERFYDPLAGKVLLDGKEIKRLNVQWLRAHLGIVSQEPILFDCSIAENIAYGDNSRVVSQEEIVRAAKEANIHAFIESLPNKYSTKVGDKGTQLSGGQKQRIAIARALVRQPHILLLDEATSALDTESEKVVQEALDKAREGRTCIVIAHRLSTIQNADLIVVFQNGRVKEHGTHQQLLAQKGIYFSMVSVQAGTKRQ

- Activity: substrate [+]
Compound: COc1cc2nc(N3CCCN(C(=O)N4CCOCC4)CC3)cc(N)c2c(-c2ccc(F)cc2)c1OC
